For the experiment, the target named is Bcl-2 (Homo sapiens, UniProt P10415). The experiment in a line: Homogeneous HTS assay for inhibitors of the Bcl-2 : Bak (72-87) BH3 domain interaction, fluorescence polarisation (2D-FIDA). The format is binding. Particulars: fluorescence polarisation, fluorescent labelled Bak BH3 domain derived peptide; read-out: IC50 [μM] Bcl-2.
Bcl-2, sequence (P10415 whole entry, species assumed, the tested form may be a part): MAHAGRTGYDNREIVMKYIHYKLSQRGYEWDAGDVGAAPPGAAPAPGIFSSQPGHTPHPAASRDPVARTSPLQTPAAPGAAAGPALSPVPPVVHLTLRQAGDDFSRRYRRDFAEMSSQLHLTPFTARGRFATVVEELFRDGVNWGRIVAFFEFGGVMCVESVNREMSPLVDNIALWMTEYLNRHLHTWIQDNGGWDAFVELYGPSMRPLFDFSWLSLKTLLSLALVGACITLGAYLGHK

As a reminder, the IC50 is the point on the concentration scale where inhibition reaches its midpoint. In the case of `N=c1n(CCCOc2ccc(F)cc2)c2ccc(F)cc2n1Cc1ccc(Br)cc1` [Compound 59, 3-(4-Bromo-benzyl)-5-fluoro-1-[3-(4-fluoro-phenoxy)-propyl]-1,3-dihydro-benzoimidazol-2-ylideneamine], the IC50 was 11 to 100 µM.
For the molecule `N=c1n(CCCOc2ccc(F)cc2)c2cc(C(F)(F)F)ccc2n1Cc1ccc(Br)cc1` [Compound 60, 1-(4-Bromo-benzyl)-3-[3-(4-fluoro-phenoxy)-propyl]-5-trifluoromethyl-1,3-dihydro-benzoimidazol-2-ylideneamine], the IC50 was in the range of 11 to 100 µM.
In the case of `N=c1n(CCCOc2ccc(F)cc2)c2cc(F)ccc2n1Cc1ccc(Br)cc1` [Compound 61, 1-(4-Bromo-benzyl)-5-fluoro-3-[3-(4-fluoro-phenoxy)-propyl]-1,3-dihydro-benzoimidazol-2-ylideneamine], the IC50 fell in the range of 11 to 100 µM.
The value for `Cc1ccc2c(c1)n(Cc1ccc(N3CCN(Cc4ccccc4-c4ccccc4)CC3)cc1)c(=N)n2CCCOc1ccc(F)cc1` [Compound 62, 3-[4-(4-Biphenyl-2-ylmethyl-piperazin-1-yl)-benzyl]-1-[3-(4-fluoro-phenoxy)-propyl]-5-methyl-1,3-dihydro-benzoimidazol-2-ylideneamine] was below 10 µM.
As to `N=c1n(CCCOc2ccc(F)cc2)c2ccc(F)cc2n1Cc1ccc(N2CCN(Cc3ccccc3-c3ccccc3)CC2)cc1` [Compound 63, 3-[4-(4-Biphenyl-2-ylmethyl-piperazin-1-yl)-benzyl]-5-fluoro-1-[3-(4-fluoro-phenoxy)-propyl]-1,3-dihydro-benzoimidazol-2-ylideneamine], the IC50 lay in the range of 11 to 100 µM.
Then `CC1(C)CCC(c2ccc(Cl)cc2)=C(CN2CCN(c3ccc(Cn4c(=N)n(CCCOc5ccc(F)cc5)c5ccc(F)cc54)cc3)CC2)C1` [Compound 64, 3-(4-{4-[2-(4-Chloro-phenyl)-5,5-dimethyl-cyclohex-1-enylmethyl]-piperazin-1-yl}-benzyl)-5-fluoro-1-[3-(4-fluoro-phenoxy)-propyl]-1,3-dihydro-benzoimidazol-2-ylideneamine], with below 10 µM; and `CCOC(=O)c1cccc(OCCCn2c(=N)n(Cc3ccc(Br)cc3)c3ccccc32)c1` [Compound 65, 3-{3-[3-(4-Bromo-benzyl)-2-imino-2,3-dihydro-benzoimidazol-1-yl]-propoxy}-benzoic acid ethyl ester], with 11 to 100 µM; and `COC(=O)c1ccc(OCCCn2c(=N)n(Cc3ccc(Br)cc3)c3ccccc32)cc1` [Compound 66, 4-{3-[3-(4-Bromo-benzyl)-2-imino-2,3-dihydro-benzoimidazol-1-yl]-propoxy}-benzoic acid methyl ester], with 11 to 100 µM.
Then `COC(=O)c1ccc(OCCCn2c(=N)n(Cc3cccc(Br)c3)c3ccccc32)cc1` [Compound 67, 4-{3-[3-(3-Bromo-benzyl)-2-imino-2,3-dihydro-benzoimidazol-1-yl]-propoxy}-benzoic acid methyl ester], with 11 to 100 µM; and `CCOC(=O)c1cccc(OCCCn2c(=N)n(Cc3cccc(Br)c3)c3ccccc32)c1` [Compound 68, 3-{3-[3-(3-Bromo-benzyl)-2-imino-2,3-dihydro-benzoimidazol-1-yl]-propoxy}-benzoic acid ethyl ester], with 11 to 100 µM.
The value for `CCOC(=O)c1cccc(OCCCn2c(=N)n(Cc3ccc(N4CCN(Cc5ccccc5-c5ccccc5)CC4)cc3)c3ccccc32)c1` [Compound 69, 3-(3-{3-[4-(4-Biphenyl-2-ylmethyl-piperazin-1-yl)-benzyl]-2-imino-2,3-dihydro-benzoimidazol-1-yl}-propoxy)-benzoic acid ethyl ester] was below 10 µM.
On to `N=c1n(CCCOc2cccc(C(=O)O)c2)c2ccccc2n1Cc1ccc(N2CCN(Cc3ccccc3-c3ccccc3)CC2)cc1` [Compound 70, 3-(3-{3-[4-(4-Biphenyl-2-ylmethyl-piperazin-1-yl)-benzyl]-2-imino-2,3-dihydro-benzoimidazol-1-yl}-propoxy)-benzoic acid], for which the IC50 is below 10 µM.
Consider `CCOC(=O)c1cccc(OCCCn2c(=N)n(Cc3ccccc3)c3ccccc32)c1` [Compound 71, 3-[3-(3-Benzyl-2-imino-2,3-dihydro-benzoimidazol-1-yl)-propoxy]-benzoic acid ethyl ester], for which the 50% inhibitory concentration (IC50) fell in the range of 11 to 100 µM.
Then `N=c1n(CCCOc2ccc(F)cc2)c2ccccc2n1Cc1cccc(C(=O)O)c1` [Compound 72, 3-{3-[3-(4-Fluoro-phenoxy)-propyl]-2-imino-2,3-dihydro-benzoimidazol-1-ylmethyl}-benzoic acid], with 11 to 100 µM; and `CCOC(=O)c1cccc(OCCCn2c(=N)n(Cc3ccc(N4CCN(Cc5ccccc5-c5ccc(Cl)cc5)CC4)cc3)c3ccccc32)c1` [Compound 73, 3-[3-(3-{4-[4-(4′-Chloro-biphenyl-2-ylmethyl)-piperazin-1-yl]-benzyl}-2-imino-2,3-dihydro-benzoimidazol-1-yl)-propoxy]-benzoic acid ethyl ester], with below 10 µM; and `N=c1n(CCCOc2cccc(C(=O)O)c2)c2ccccc2n1Cc1ccc(N2CCN(Cc3ccccc3-c3ccc(Cl)cc3)CC2)cc1` [Compound 74, 3-[3-(3-{4-[4-(4′-Chloro-biphenyl-2-ylmethyl)-piperazin-1-yl]-benzyl}-2-imino-2,3-dihydro-benzoimidazol-1-yl)-propoxy]-benzoic acid], with below 10 µM.
The value for `CC1(C)CCC(c2ccc(Cl)cc2)=C(CN2CCN(c3cccc(Cn4c(=N)n(CCCOc5cccc(C(=O)O)c5)c5ccccc54)c3)CC2)C1` [Compound 75, 3-{3-[3-(3-{4-[2-(4-Chloro-phenyl)-5,5-dimethyl-cyclohex-1-enylmethyl]-piperazin-1-yl}-benzyl)-2-imino-2,3-dihydro-benzoimidazol-1-yl]-propoxy}-benzoic acid] was below 10 µM; that for `N=c1n(Cc2cccc(Br)c2)c2ccccc2n1CC(O)COc1ccc(F)cc1` (stereo not drawn) [Compound 76, 1-[3-(3-Bromo-benzyl)-2-imino-2,3-dihydro-benzoimidazol-1-yl]-3-(4-fluoro-phenoxy)-propan-2-ol] was 11 to 100 µM; that for `N=c1n(Cc2ccc(Br)cc2)c2ccccc2n1CC(O)COc1ccc(F)cc1` (stereo not drawn) [Compound 77, 1-[3-(4-Bromo-benzyl)-2-imino-2,3-dihydro-benzoimidazol-1-yl]-3-(4-fluoro-phenoxy)-propan-2-ol] was below 10 µM.
Then `N=c1n(Cc2ccccc2)c2ccccc2n1CC(O)COc1ccccc1` (stereo not drawn) [Compound 78, 1-(3-Benzyl-2-imino-2,3-dihydro-benzoimidazol-1-yl)-3-phenoxy-propan-2-ol], with 11 to 100 µM.
For the molecule `Cc1ccccc1OCC(O)Cn1c(=N)n(Cc2ccccc2)c2ccccc21` (stereo not drawn) [Compound 79, 1-(3-Benzyl-2-imino-2,3-dihydro-benzoimidazol-1-yl)-3-o-tolyloxy-propan-2-ol], the IC50 lay within 11 to 100 µM.
`N=c1n(Cc2ccccc2)c2ccccc2n1CC(O)COc1ccc(Cl)cc1` (stereo not drawn) [Compound 80, 1-(3-Benzyl-2-imino-2,3-dihydro-benzoimidazol-1-yl)-3-(4-chloro-phenoxy)-propan-2-ol]: the IC50 is 11 to 100 µM.
For `N=c1n(Cc2ccccc2)c2ccccc2n1CC(O)COc1ccc([N+](=O)[O-])cc1` (stereo not drawn) [Compound 81, 1-(3-Benzyl-2-imino-2,3-dihydro-benzoimidazol-1-yl)-3-(4-nitro-phenoxy)-propan-2-ol], the IC50 fell in the range of 11 to 100 µM.
The value for `N=c1n(Cc2cccc(N3CCN(Cc4ccccc4-c4ccccc4)CC3)c2)c2ccccc2n1CC(O)COc1ccc(F)cc1` (stereo not drawn) [Compound 82, 1-{3-[3-(4-Biphenyl-2-ylmethyl-piperazin-1-yl)-benzyl]-2-imino-2,3-dihydro-benzoimidazol-1-yl}-3-(4-fluoro-phenoxy)-propan-2-ol] was below 10 µM; that for `N=c1n(Cc2ccc(N3CCN(Cc4ccccc4-c4ccccc4)CC3)cc2)c2ccccc2n1CC(O)COc1ccc(F)cc1` (stereo not drawn) [Compound 83, 1-{3-[4-(4-Biphenyl-2-ylmethyl-piperazin-1-yl)-benzyl]-2-imino-2,3-dihydro-benzoimidazol-1-yl}-3-(4-fluoro-phenoxy)-propan-2-ol] was below 10 µM.
Then `N=c1n(CCCOc2cccc(C(=O)O)c2)c2ccccc2n1Cc1cccc(Br)c1` [Compound 84, 3-{3-[3-(3-Bromo-benzyl)-2-imino-2,3-dihydro-benzoimidazol-1-yl]-propoxy}-benzoic acid], with 11 to 100 µM.
For `N=c1n(CCCOc2cccc(C(=O)O)c2)c2ccccc2n1Cc1ccc(Br)cc1` [Compound 85, 3-{3-[3-(4-Bromo-benzyl)-2-imino-2,3-dihydro-benzoimidazol-1-yl]-propoxy}-benzoic acid], the IC50 fell in the range of 11 to 100 µM.
The value for `CS(=O)(=O)NC(=O)c1cccc(OCCCn2c(=N)n(Cc3cccc(Br)c3)c3ccccc32)c1` [Compound 86, N-(3-{3-[3-(3-Bromo-benzyl)-2-imino-2,3-dihydro-benzoimidazol-1-yl]-propoxy}-benzoyl)-methanesulfonamide] was below 10 µM; that for `N=c1n(CCCOc2ccc(Br)cc2)c2ccccc2n1Cc1ccccc1` [Compound 87, 1-Benzyl-3-[3-(4-bromo-phenoxy)-propyl]-1,3-dihydro-benzoimidazol-2-ylideneamine] was 11 to 100 µM.
Consider `COc1ccc(OCC(O)Cn2c(=N)n(Cc3ccccc3)c3ccccc32)cc1` (stereo not drawn) [Compound 88, 1-(3-Benzyl-2-imino-2,3-dihydro-benzoimidazol-1-yl)-3-(4-methoxy-phenoxy)-propan-2-ol], for which the IC50 fell in the range of 11 to 100 µM.
Consider `COc1ccccc1OCC(O)Cn1c(=N)n(Cc2ccccc2)c2ccccc21` (stereo not drawn) [Compound 89, 1-(3-Benzyl-2-imino-2,3-dihydro-benzoimidazol-1-yl)-3-(2-methoxy-phenoxy)-propan-2-ol], for which the IC50 fell in the range of 11 to 100 µM.
Then `N=c1n(Cc2ccccc2)c2ccccc2n1CC(O)c1ccco1` (stereo not drawn) [Compound 91, 2-(3-Benzyl-2-imino-2,3-dihydro-benzoimidazol-1-yl)-1-furan-2-yl-ethanol], with above 100 µM; and `N=c1n(Cc2ccccc2)c2ccccc2n1CC(O)c1ccccc1` (stereo not drawn) [Compound 92, 2-(3-Benzyl-2-imino-2,3-dihydro-benzoimidazol-1-yl)-1-phenyl-ethanol], with above 100 µM.

Values taken from patent US8759520B2, “Compounds for treating cancer” (Boehringer Ingelheim International GmbH, priority 2008, dated 2014).
